Results reported in patent publication US6562837B1, “Use of tetrahydroisoquinoline compounds for the treatment of septicemia” (Korea Institute of Science & Technology, priority 1998, dated 2003).

Key:
[1] = target: α-receptor; test: Binding affinity to α-adrenoceptor, [3H]prazosin, rat cerebral cortical membrane; details: [3H]prazosin 200 pM, 25° C., 30 min, read-out: Dissociation constant Ki (M) for cerebral α-receptor of rat
Protocol: For this, the cerebral cortex obtained from rats (Sprague-Dawley, 250±20 g; unless particularly mentioned, the same rats were used in the following experiments) was homogeneously mixed with a 20× buffer (50 mM Tris, 5 mM MgSO4, 1 mM EDTA, 1 mM ascorbic acid, pH 7.7) and then, centrifuged three times at 35,000×g for 15 min and the pellet was stored at −70° C. A solution of 5 mg of the pellet in 1 ml of the buffer was incubated, along with [^3H]prazosin (200 pM) and samples, at 25° C. for 30 min followed by adding 10 ml of a buffer (50 mM Tris, pH 7.7) to quench the binding reaction. The resulting solution was filtered through a Whatman GF/C glass microfiber filter which was then shaken for 2 hours while being completely submerged in a scintillation cocktail. The radioactivity was measured using a scintillation counter (Beckman, LS6500)

[2] = system: Rat thoracic aorta; test: Relaxation of phenylephrine-contracted isolated rat thoracic aorta; format: cell-based
[3] = system: acute thrombosis in the pulmonary artery; test: Acute thrombosis (collagen plus epinephrine i.v.) in mice, recovery from paralysis; format: in vivo
Protocol: A mixture of collagen (300:μg/kg) plus epinephrine (30:μg/kg) was injected into the tail vein of mice (ICR; […], the same mice were employed in all of the following experiments) to induce massive, acute thrombosis in the pulmonary artery. Thus, an acute thrombosis model, in which mice were paralyzed in 1-3 min after the injection and most of them died within 15 min was prepared. To investigate the effect of the compounds of Chemical Formulas 1 and 2 on the acute thrombosis, either of the compounds was orally administered to mice for 1 or 3 days. The intravenous injection of the mixture of collagen and epinephrine was conducted 1 hour after the final oral administration. An observation was taken to examine the mortality change and the recovery from the paralysis and the results are given in Tables 4 and 5, below.
Most of the mice were paralyzed within 1 min after the injection, following dilation of the pupils, difficult breathing, and convulsions. Most of the mice either died within 5 min or were subjected to paralysis for 15 min or longer. Only a few of them recovered from the paralysis.

[4] = system: thrombus formation in AVS tube; test: Thrombus formation in arterio-venous shunt (AVS) tube in rats; format: in vivo; details: for Weight (mg) of thrombus: control 42.67 ± 5.381
Protocol: An AVS tube was prepared. For this, a scalp vein set was cut into a length of 18 cm, and each end was connected to a 18G syringe needle while a 100% cotton thread 5 cm long was fixed to the center of the tube. Rats were anesthetized with ketamine (250 mg/kg) by injection (i.m.) and underwent laparotomy. An AVS tube filled with saline was installed between the abdominal aorta and the renal vein in such a way that its one syringe needle was inserted in the abdominal aorta and the other syringe needle was inserted in the renal vein. Blood was allowed to pass through the AVS tube so as to form thrombus on the cotton thread. After circulation of blood through the AVS tube for 15 min, the thread was taken out from the AVS tube. The weight of the thrombus formed on the cotton thread was determined by weighing the thread.

[5] = system: LPS-caused death; test: Preventive effect on LPS-caused death in mice; format: in vivo; details: for survival rate until 48 hours: 10 mg/kg i.p. 30 min before LPS (20 mg/kg i.p.), LPS only about 20%; for deaths up to 30 hours after the LPS injection: 20 mg/kg i.p. 30 min before LPS (20 mg/kg i.p.)
Protocol: When a large quantity of LPS is injected into animals, various diseases, such as DIC, are generated and they are dead of septic shock in a short period of time. In this experiment, LPS (20 mg/kg) was intraperitoneally injected into mice and the number of mice which were alive for 48 hours after the injection, was counted. Also, an examination was made of the influence of test drugs on the survival ratio.
LPS (20 mg/kg) was administered to mice by injection (i.p.), after which the mice alive were countered every 6 hours for 48 hours. 30 min before LPS injection, test drugs were intraperitoneally injected into the mice to examine the preventive effect on the LPS-caused death.

[6] = 10 mg/kg orally once for three successive days, recovered within 15 min
[7] = 10 mg/kg orally once for three successive days, recovered within 15 min, control 20%
[8] = 50 mg/kg orally once for three successive days, recovered within 15 min
[9] = 50 mg/kg orally once for three successive days, recovered within 15 min, control 20%
[10] = 50 mg/kg orally once, recovered from thrombotic paralysis within 15 min
[11] = 50 mg/kg orally once, recovered within 15 min, control 17%
[12] = 100 mg/kg orally once, recovered from thrombotic paralysis within 15 min
[13] = 100 mg/kg orally once, recovered within 15 min, control 17%
[14] = 10 mg/kg orally once a day for successive three days
[15] = 25 mg/kg orally once, first series, control 33.61 mg
[16] = 25 mg/kg orally once, first series, control 33.61 ± 7.620
[17] = 50 mg/kg orally once a day for successive three days
[18] = 50 mg/kg orally once, second series, control 39.54 mg
[19] = 50 mg/kg orally once, second series, control 39.54 ± 5.625

| Structure (SMILES) | Ki [1] [M] | IC50 [2] [µM] | Mice Recovered, Number [3, 6] | Mice Recovered, % [3, 7] [%] | Mice Recovered, Number [3, 8] | Mice Recovered, % [3, 9] [%] | Mice Recovered, Number [3, 10] | Mice Recovered, % [3, 11] [%] | Mice Recovered, Number [3, 12] | Mice Recovered, % [3, 13] [%] | % Inhibition of thrombus formation [4, 14] [%] | Weight (mg) of thrombus [4, 14] [mg] | % Inhibition of thrombus formation [4, 15] [%] | Weights (mg) of thrombus [4, 16] [mg] | % Inhibition of thrombus formation [4, 17] [%] | Weight (mg) of thrombus [4, 17] [mg] | % Inhibition of thrombus formation [4, 18] [%] | Weights (mg) of thrombus [4, 19] [mg] | survival rate until 48 hours [5] [%] | deaths up to 30 hours after the LPS injection [5] |
| --- | --- | --- | --- | --- | --- | --- | --- | --- | --- | --- | --- | --- | --- | --- | --- | --- | --- | --- | --- | --- |
| Oc1cc2c(cc1O)C(Cc1cccc3ccccc13)NCC2 (stereo not drawn) [Compound 1, 1-α-naphthylmethyl-6,7-dihydroxy-1,2,3,4-tetrahydroisoquinoline] | 2.7e-07 | 2.75 | 3 | 30 | 5 | 42 | 8 | 47 | 9 | 45 | 25.5 | 31.78 ± 8.385 | 39.7 | 20.27 ± 5.366 | 28.0 | 30.72 ± 6.334 | 24.8 | 29.72 ± 5.975 | 60 | no mice were dead until 30 hours |
| Oc1ccc(CC2NCCc3cc(O)c(O)cc32)cc1 (centres unmarked) [Higenamine, reference compound] | 1.26e-06 | 1.02 | 2 | 17 | 5 | 45 | 11 | 37 | 13 | 48 | 13.9 | 36.76 ± 7.964 | 31.6 | 22.98 ± 11.271 | 18.7 | 34.68 ± 8.513 | 25.1 | 29.61 ± 5.059 | 80 | – |
| Oc1cc2c(cc1O)C(Cc1ccc3ccccc3c1)NCC2 (stereo not drawn) [Compound 2, 1-β-naphthylmethyl-6,7-dihydroxy-1,2,3,4-tetrahydroisoquinoline] | 1.5e-07 | 2.81 | 7 | 70 | 7 | 64 | 14 | 50 | 12 | 50 | 24.4 | 32.24 ± 4.836 | 32.5 | 22.68 ± 10.127 | 29.3 | 30.18 ± 6.571 | 27.7 | 28.58 ± 4.234 | 80 | no mice were dead until 30 hours |
